Laboratory results taken from patent publication US20250277012A1 (Protagonist Therapeutics, Inc., priority 2021, published 2025).
Starred links: 1 amine or outer side, 2 acyl side, 3 side chain; linkers in the order of their positions; H or OH if unused. Positions of bridges follow the written chain, without caps; N, C: chain ends. Non-standard residues stand in square brackets, D forms with d. Residues, ends and D or L forms follow the SMILES beside them. Groups on a side chain read outwards from the residue. ξ: configuration not given here. *: point of attachment. X2 = C[N+](C)(CCNC(=O)CCCCCCCCCCCCCCCCC(=O)O)CC(=O)NCC[N+](C)(C)CC(=O)*; X1 = C[N+](C)(CCNC(=O)CCCCCCCCCCCCCCCCC(=O)O)CC(=O)*; X5 = CCCCCCCCCCCCCCCC(=O)NCC[N+](C)(C)CC(=O)*; C18 diacid = O=C(O)CCCCCCCCCCCCCCCCC(=O)*; Dip = N[C@H](C(=O)O)C(c1ccccc1)c1ccccc1; γGlu = O=C(O)[C@H](CCC(=O)[*:2])N[*:1]; Pro(3S-OH) = O=C(O)[C@H]1NCC[C@@H]1O; Pro(3R-OH) = O=C(O)[C@H]1NCC[C@H]1O; Ethylenediamine = C(CN[*:2])N[*:1]; Palmitoyl = CCCCCCCCCCCCCCCC(=O)*; NMeT = CN[C@H](C(=O)O)[C@@H](C)O; 3Pal = N[C@@H](Cc1cccnc1)C(=O)O; β3hF = N[C@H](CC(=O)O)Cc1ccccc1; Aad = N[C@@H](CCCC(=O)O)C(=O)O; NMeK = CN[C@@H](CCCCN)C(=O)O; Isovaleryl = CC(C)CC(=O)*; dDap = NC[C@@H](N)C(=O)O; Dap = NC[C@H](N)C(=O)O; AEEA = NCCOCCOCC(=O)O; Ahx = NCCCCCC(=O)O; ξC = NC(CS)C(=O)O

target: T1, ferroportin (Homo sapiens, UniProt Q9NP59); assay: T47D cell-based ferroportin internalization assay in presence of mouse serum albumin (MSA); parameters: a human breast carcinoma adherent cell line which endogenously expresses ferroportin; host or cells: T47D; details: T47D internalization assay in presence of mouse serum albumin (MSA); Table 6E
T1 sequence (Q9NP59 1-571): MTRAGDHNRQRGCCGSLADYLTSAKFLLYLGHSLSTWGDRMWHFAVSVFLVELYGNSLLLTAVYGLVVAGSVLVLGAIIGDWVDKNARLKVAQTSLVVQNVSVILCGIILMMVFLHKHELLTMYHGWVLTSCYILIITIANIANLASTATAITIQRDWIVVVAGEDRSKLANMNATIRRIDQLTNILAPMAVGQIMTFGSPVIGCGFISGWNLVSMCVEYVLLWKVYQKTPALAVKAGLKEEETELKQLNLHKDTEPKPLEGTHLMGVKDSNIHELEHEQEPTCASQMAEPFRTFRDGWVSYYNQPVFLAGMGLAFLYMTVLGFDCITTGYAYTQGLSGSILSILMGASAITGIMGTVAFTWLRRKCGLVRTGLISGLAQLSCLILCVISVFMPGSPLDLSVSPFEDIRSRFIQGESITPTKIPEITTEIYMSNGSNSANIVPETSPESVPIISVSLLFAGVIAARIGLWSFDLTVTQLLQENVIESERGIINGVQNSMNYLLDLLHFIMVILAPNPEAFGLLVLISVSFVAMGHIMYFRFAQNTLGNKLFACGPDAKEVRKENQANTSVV
Experimental: The potency of the peptides in causing ferroportin internalization was evaluated in a T47D cell-based assay. […] In this internalization assay, the potency of the test peptides was evaluated in presence of serum albumin which is the main protein component in the blood. T47D cells were maintained in RPMI media (containing required amount of fetal bovine serum) and regularly sub-cultured. In preparation for the assay, the cells were seeded in 96-well plates at a density of 80-100 k cells per well in 100 ul volume and allowed to rest overnight. […] Sigma, A3139). The test peptide dilution series were allowed to incubate at room temperature for 30 min. Then the media was aspirated from the 96-well cell plate and test peptide dilution series were added. […] The AF647-conjugated detection peptide was previously verified to bind to ferroportin and cause its internalization. The cells were washed again after a 2 hr incubation in preparation for flow cytometry analysis. The Median Fluorescence Intensity (MFI) of the AF647-positive population was measured (after removing dead cells and non-singlets from the analysis). The MFI values were used to generate a dose-response curve and obtain IC50 potencies for the test peptides.

IC50 [nM] | Compound
10 to 100 | CC(C)CC(=O)N[C@@H](CCC(=O)O)C(=O)N1CC[C@H](O)[C@H]1C(=O)N[C@@H](Cc1c[nH]cn1)C(=O)N[C@H](C(=O)N1CCC[C@H]1C(=O)N[C@H]1CSSC[C@@H](C(=O)N(C)[C@@H](CCCCNC(=O)COCCOCCNC(=O)COCCOCCNC(=O)[C@H](CN)NC(=O)CCCCCCCCCCCCCCCCC(=O)O)C(=O)N[C@H](CC(=O)N[C@H](CCCCN)C(N)=O)Cc2ccccc2)NC1=O)C(c1ccccc1)c1ccccc1 [compound 253] (Isovaleryl-E[Pro(3S-OH)]H[Dip]PCC[NMeK]([AEEA-AEEA-Dap-C18 diacid])[β3hF][dK]-NH2; disulfide 6-7)
10 to 100 | CC(C)CC(=O)N[C@@H](CCCC(=O)O)C(=O)N[C@H](C(=O)N[C@@H](Cc1cccnc1)C(=O)N[C@H](C(=O)N1CCC[C@H]1C(=O)N[C@H]1CSSC[C@@H](C(=O)N(C)[C@@H](CCCCNC(=O)COCCOCCNC(=O)COCCOCCNC(=O)[C@H](CN)NC(=O)CCCCCCCCCCCCCCCCC(=O)O)C(=O)N[C@H](CC(=O)N[C@H](CCCCN)C(N)=O)Cc2ccccc2)NC1=O)C(c1ccccc1)c1ccccc1)[C@@H](C)O [compound 246] (Isovaleryl-[Aad]T[3Pal][Dip]PCC[NMeK]([AEEA-AEEA-Dap-C18 diacid])[β3hF][dK]-NH2; disulfide 6-7)

same assay, conditions: Table 6E; T47D internalization assay with MSA

Compound | IC50 [nM]
CCCCCCCCCCCCCCCC(=O)NCC[N+](C)(C)CC(=O)NCCCC[C@@H](C(=O)N[C@H](C(=O)N[C@H](CCCCN)C(N)=O)C(c1ccccc1)c1ccccc1)N(C)C(=O)[C@@H]1CSSC[C@H](NC(=O)[C@@H]2CCCN2C(=O)[C@@H](NC(=O)[C@H](Cc2cnc[nH]2)NC(=O)[C@@H](NC(=O)[C@H](CCC(=O)OC)NC(=O)CC(C)C)[C@@H](C)O)C(c2ccccc2)c2ccccc2)C(=O)N1 [compound 175] (Isovaleryl-E(OMe)TH[Dip]PCC[NMeK](X5)[Dip][dK]-NH2; disulfide 6-7) | 1 to 10
CCCCCCCCCCCCCCCC(=O)NCC[N+](C)(C)CC(=O)NCCCC[C@@H](C(=O)N[C@H](C(=O)N[C@H](CCCCN)C(N)=O)C(c1ccccc1)c1ccccc1)N(C)C(=O)[C@@H]1CSSC[C@H](NC(=O)[C@@H]2CCCN2C(=O)[C@@H](NC(=O)[C@H](Cc2c[nH]cn2)NC(=O)[C@@H]2[C@H](O)CCN2C(=O)[C@H](CCC(=O)OC)NC(=O)CC(C)C)C(c2ccccc2)c2ccccc2)C(=O)N1 [compound 151] (Isovaleryl-E(OMe)[Pro(3R-OH)]H[Dip]PCC[NMeK](X5)[Dip][dK]-NH2; disulfide 6-7) | 1 to 10
CCCCCCCCCCCCCCCC(=O)N[C@@H](CCC(=O)NCCCC[C@@H](C(=O)N[C@H](CC(=O)N[C@H](CCCCN)C(N)=O)Cc1ccccc1)N(C)C(=O)[C@@H]1CSSC[C@H](NC(=O)[C@@H]2CCCN2C(=O)[C@@H](NC(=O)[C@H](Cc2cnc[nH]2)NC(=O)[C@@H](NC(=O)[C@H](CCC(=O)O)NC(=O)CC(C)C)[C@@H](C)O)C(c2ccccc2)c2ccccc2)C(=O)N1)C(=O)O [compound 223] (Isovaleryl-ETH[Dip]PCC[NMeK]([γGlu-Palmitoyl])[β3hF][dK]-NH2; disulfide 6-7) | 1 to 10
COC(=O)CC[C@H](NC(=O)CC(C)C)C(=O)N[C@H](C(=O)N[C@@H](Cc1c[nH]cn1)C(=O)N[C@H](C(=O)N1CCC[C@H]1C(=O)N[C@H]1CSSC[C@@H](C(=O)N[C@@H](CCCCNC(=O)C[N+](C)(C)CCNC(=O)C[N+](C)(C)CCNC(=O)CCCCCCCCCCCCCCCCC(=O)O)C(=O)N[C@H](C(=O)N[C@H](CCCCN)C(N)=O)C(c2ccccc2)c2ccccc2)NC1=O)C(c1ccccc1)c1ccccc1)[C@@H](C)O [compound 209] (Isovaleryl-E(OMe)TH[Dip]PCCK(X2)[Dip][dK]-NH2; disulfide 6-7) | 10 to 100
COC(=O)CC[C@H](NC(=O)CC(C)C)C(=O)N[C@H](C(=O)N[C@@H](Cc1c[nH]cn1)C(=O)N[C@H](C(=O)N1CCC[C@H]1C(=O)N[C@H]1CSSC[C@@H](C(=O)N[C@H](CCCCNC(=O)CCCCCNC(=O)C[N+](C)(C)CCNC(=O)CCCCCCCCCCCCCCCCC(=O)O)C(=O)N[C@H](CC(=O)N[C@H](CCCCN)C(N)=O)Cc2ccccc2)NC1=O)C(c1ccccc1)c1ccccc1)[C@@H](C)O [compound 213] (Isovaleryl-E(OMe)TH[Dip]PCC[dK]([Ahx-X1])[β3hF][dK]-NH2; disulfide 6-7) | 10 to 100
CCCCCCCCCCCCCCCC(=O)NCCCCCC(=O)NCCCC[C@@H](C(=O)N[C@H](C(=O)N[C@H](CN)C(N)=O)C(c1ccccc1)c1ccccc1)N(C)C(=O)[C@@H]1CSSC[C@H](NC(=O)[C@@H]2CCCN2C(=O)[C@@H](NC(=O)[C@H](Cc2cnc[nH]2)NC(=O)[C@@H](NC(=O)[C@H](CCC(=O)O)NC(=O)CC(C)C)[C@@H](C)O)C(c2ccccc2)c2ccccc2)C(=O)N1 [compound 165] (Isovaleryl-ETH[Dip]PCC[NMeK]([Ahx-Palmitoyl])[Dip][dDap]-NH2; disulfide 6-7) | 1 to 10
CCCCCCCCCCCCCCCC(=O)NCCCCCC(=O)NCCCC[C@@H](C(=O)N[C@H](C(=O)NCCN)C(c1ccccc1)c1ccccc1)N(C)C(=O)C1CSSC[C@H](NC(=O)[C@@H]2CCCN2C(=O)[C@@H](NC(=O)[C@H](Cc2c[nH]cn2)NC(=O)[C@@H](NC(=O)[C@H](CCC(=O)O)NC(=O)CC(C)C)[C@@H](C)O)C(c2ccccc2)c2ccccc2)C(=O)N1 (some centres unmarked) [compound 164] (Isovaleryl-ETH[Dip]PC[ξC][NMeK]([Ahx-Palmitoyl])[Dip]-Ethylenediamine; disulfide 6-7) | 1 to 10

Continued, values first:

IC50 [nM] | Compound
10 to 100 | CC(C)CC(=O)N[C@@H](CCC(=O)O)C(=O)N1CC[C@@H](O)[C@H]1C(=O)N[C@@H](Cc1c[nH]cn1)C(=O)N[C@H](C(=O)N1CCC[C@H]1C(=O)N[C@H]1CSSC[C@@H](C(=O)N(C)[C@@H](CCCCNC(=O)CCCCCNC(=O)C[N+](C)(C)CCNC(=O)CCCCCCCCCCCCCCCCC(=O)O)C(=O)N[C@H](C(=O)N[C@H](CCCCN)C(N)=O)C(c2ccccc2)c2ccccc2)NC1=O)C(c1ccccc1)c1ccccc1 [compound 191] (Isovaleryl-E[Pro(3R-OH)]H[Dip]PCC[NMeK]([Ahx-X1])[Dip][dK]-NH2; disulfide 6-7)
10 to 100 | CC(C)CC(=O)N[C@@H](CCC(=O)O)C(=O)N(C)[C@H](C(=O)N[C@@H](Cc1c[nH]cn1)C(=O)N[C@H](C(=O)N1CCC[C@H]1C(=O)N[C@H]1CSSC[C@@H](C(=O)N(C)[C@@H](CCCCNC(=O)C[N+](C)(C)CCNC(=O)CCCCCCCCCCCCCCCCC(=O)O)C(=O)N[C@H](C(=O)N[C@H](CCCCN)C(N)=O)C(c2ccccc2)c2ccccc2)NC1=O)C(c1ccccc1)c1ccccc1)[C@@H](C)O [compound 187] (Isovaleryl-E[NMeT]H[Dip]PCC[NMeK](X1)[Dip][dK]-NH2; disulfide 6-7)
1 to 10 | CCCCCCCCCCCCCCCC(=O)NCC[N+](C)(C)CC(=O)NCCCCCC(=O)NCCCC[C@@H](C(=O)N[C@H](C(=O)N[C@H](CCCCN)C(N)=O)C(c1ccccc1)c1ccccc1)N(C)C(=O)[C@@H]1CSSC[C@H](NC(=O)[C@@H]2CCCN2C(=O)[C@@H](NC(=O)[C@H](Cc2cnc[nH]2)NC(=O)[C@H]([C@@H](C)O)N(C)C(=O)[C@H](CCC(=O)O)NC(=O)CC(C)C)C(c2ccccc2)c2ccccc2)C(=O)N1 [compound 170] (Isovaleryl-E[NMeT]H[Dip]PCC[NMeK]([Ahx-X5])[Dip][dK]-NH2; disulfide 6-7)
1 to 10 | CCCCCCCCCCCCCCCC(=O)NCC[N+](C)(C)CC(=O)NCCCCCC(=O)NCCCC[C@@H](C(=O)N[C@H](C(=O)N[C@H](CCCCN)C(N)=O)C(c1ccccc1)c1ccccc1)N(C)C(=O)[C@@H]1CSSC[C@H](NC(=O)[C@@H]2CCCN2C(=O)[C@@H](NC(=O)[C@H](Cc2cnc[nH]2)NC(=O)[C@@H](NC(=O)[C@H](CCC(=O)O)NC(=O)CC(C)C)[C@@H](C)O)C(c2ccccc2)c2ccccc2)C(=O)N1 [compound 197] (Isovaleryl-ETH[Dip]PCC[NMeK]([Ahx-X5])[Dip][dK]-NH2; disulfide 6-7)
100 to 500 | COC(=O)CC[C@H](NC(=O)CC(C)C)C(=O)N(C)[C@H](C(=O)N[C@@H](Cc1c[nH]cn1)C(=O)N[C@H](C(=O)N1CCC[C@H]1C(=O)N[C@H]1CSSC[C@@H](C(=O)N(C)[C@@H](CCCCNC(=O)CCCCCNC(=O)C[N+](C)(C)CCNC(=O)CCCCCCCCCCCCCCCCC(=O)O)C(=O)N[C@H](C(=O)N(C)[C@@H](CCCCN)C(N)=O)C(c2ccccc2)c2ccccc2)NC1=O)C(c1ccccc1)c1ccccc1)[C@@H](C)O [compound 153] (Isovaleryl-E(OMe)[NMeT]H[Dip]PCC[NMeK]([Ahx-X1])[Dip][NMeK]-NH2; disulfide 6-7)
